Reference: PubChem BioAssay (NCI)
Where “and” joins values, the source holds several entries; their conditions need not be identical. Identical values can stand only once.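 Method: 48-hour compound exposure of cells in 96-well plates, five concentrations, linear interpolation of endpoints. At the GI50, growth is halved. TGI denotes the concentration required for complete inhibition of growth.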

Assays:
Assay in all cases: DTP human tumour cell line panel, 48 h
[1] = tested on: SNB-75 CNS
[2] = tested on: NCI-H226 lung
[3] = tested on: NCI-H23 lung
[4] = tested on: HCT-116 colon
[5] = tested on: SW-620 colon
[6] = tested on: SN12C renal
[7] = tested on: HCC-2998 colon
[8] = tested on: OVCAR-5 ovarian
[9] = tested on: KM12 colon
[10] = tested on: DU-145 prostate

Compound: CCc1cccc(C(C)CC)c1NC(=O)CC1C(=O)Nc2ccccc2S1=O (stereo not drawn)
- TGI [1]: 49.4 µM
- TGI [2]: > 100 µM
- TGI [3]: > 100 µM
- TGI [4]: > 100 µM
- TGI [5]: > 100 µM
- TGI [6]: > 100 µM
- TGI [7]: > 100 µM
- TGI [8]: > 100 µM

Compound: CCCCC#Cc1cccc(=O)o1
- GI50 [9]: 37.1 µM
- TGI [9]: > 100 µM
- GI50 [2]: > 100 µM
- TGI [2]: > 100 µM
- GI50 [3]: 8.98 µM
- TGI [3]: > 100 µM
- GI50 [10]: 29.5 µM
- TGI [10]: > 100 µM
- GI50 [4]: 5.34 µM
- TGI [4]: 30.4 µM
- GI50 [5]: 22.5 µM
- TGI [5]: > 100 µM
- GI50 [8]: > 100 µM
- TGI [8]: > 100 µM

Compound: CC(C)(CCC(C)(C)c1ccccc1)c1ccccc1
- TGI [1]: 36.7 µM
- TGI [9]: 30.6 µM
- TGI [2]: 37.6 µM
- TGI [3]: 33.9 µM
- TGI [10]: 38.5 µM
- TGI [4]: 29.4 µM
- TGI [5]: 35.2 µM
- TGI [6]: 32.7 µM
- TGI [8]: 33.5 µM

Compound: Cc1ccc(N(C(=O)CC(=O)N2N=C(c3ccccc3)C(N=Nc3ccc([N+](=O)[O-])cc3)C2=O)C(=O)c2ccc(Cl)cc2)cc1 (stereo not drawn)
- TGI [1]: 39.1 µM
- TGI [9]: > 78.9 µM
- TGI [2]: > 94.8 µM
- TGI [3]: 28.2 µM
- TGI [4]: 22.4 µM
- TGI [5]: > 59.6 µM
- TGI [6]: > 81.1 µM
- TGI [7]: > 100 µM
- TGI [8]: > 45.3 µM

Compound: Nc1nc(Nc2ccc3c(c2)CCC(N2CCCC2)CC3)nn1-c1cc2c(nn1)-c1ccccc1CCC2 (stereo not drawn)
- GI50 [1]: 0.792 µM
- TGI [1]: 2.18 µM
- GI50 [9]: 1.02 µM
- TGI [9]: 2.73 µM
- GI50 [3]: 1.71 µM
- TGI [3]: 3.72 µM
- GI50 [10]: 1.04 µM
- TGI [10]: 2.36 µM
- GI50 [4]: 0.754 µM
- TGI [4]: 2.02 µM
- GI50 [5]: 1.31 µM
- TGI [5]: 3.17 µM
- GI50 [6]: 0.378 µM
- TGI [6]: 1.81 µM
- GI50 [7]: 1.55 µM
- TGI [7]: 2.97 µM
- GI50 [8]: 1.39 µM
- TGI [8]: 2.76 µM

Compound: CN1c2ccccc2C(C)(C)C12CC(c1ccc(Cl)c(S(=O)(=O)N3CCCC3)c1)=NO2 (stereo not drawn)
- GI50 [1]: > 100 µM
- TGI [1]: > 100 µM
- GI50 [2]: > 100 µM
- TGI [2]: > 100 µM
- GI50 [3]: > 100 µM
- TGI [3]: > 100 µM
- GI50 [10]: > 100 µM
- TGI [10]: > 100 µM
- GI50 [6]: > 100 µM
- TGI [6]: > 100 µM
- GI50 [7]: > 100 µM
- TGI [7]: > 100 µM
- GI50 [8]: > 100 µM
- TGI [8]: > 100 µM

Compound: COc1cc2c3c(n(CCCNCCN4CCOCC4)c(=O)c2cc1OC)-c1cc2c(cc1C3=O)OCO2
- GI50 [1]: 13.6 µM and 3.69 µM
- TGI [1]: 50 µM and 9.87 µM
- GI50 [9]: 0.554 µM and 1.48 µM
- TGI [9]: 1.6 µM and 4.69 µM
- GI50 [2]: 15.1 µM
- TGI [2]: 53.8 µM
- TGI [3]: 0.529 µM and 3.83 µM
- GI50 [10]: 0.678 µM
- TGI [10]: 3.8 µM
- GI50 [4]: < 0.005 µM
- TGI [4]: 0.0975 µM
- GI50 [5]: 0.0762 µM
- TGI [5]: 1.33 µM
- GI50 [6]: 1.31 µM
- TGI [6]: 6.5 µM
- GI50 [8]: 0.913 µM and 2.31 µM
- TGI [8]: 1.74 µM and 5.16 µM

Compound: CC1=N/C(=C\c2cccc3ccccc23)C(=O)O1
- TGI [9]: > 100 µM
- TGI [3]: > 100 µM
- TGI [4]: > 100 µM
- TGI [5]: > 100 µM
- TGI [6]: > 100 µM
- TGI [7]: > 100 µM
- TGI [8]: > 100 µM

Compound: O=C1CCC(=O)C12CCc1cccc(O)c12
- TGI [1]: > 100 µM
- TGI [3]: > 100 µM
- TGI [5]: > 100 µM
- TGI [6]: > 100 µM
- TGI [7]: > 100 µM

Compound: C=CCC(C)(C(=O)NCCC)C(=O)c1ccccc1O (stereo not drawn)
- TGI [1]: > 100 µM
- TGI [9]: > 100 µM
- TGI [2]: > 100 µM
- TGI [4]: > 100 µM
- TGI [5]: > 100 µM
- TGI [6]: > 100 µM
- TGI [7]: > 100 µM

Compound: O=C(/C=C/c1ccc(Cl)cc1)c1ccncc1
- TGI [1]: 83.6 µM
- TGI [9]: 86.6 µM
- TGI [2]: > 100 µM
- TGI [3]: > 100 µM
- TGI [4]: > 100 µM
- TGI [5]: > 100 µM
- TGI [6]: > 100 µM
- TGI [7]: > 100 µM
- TGI [8]: > 100 µM

Compound: Cc1ccc([Se][Se]c2ccc(C)cc2)cc1
- TGI [1]: 42.2 µM
- TGI [9]: > 100 µM
- TGI [2]: > 100 µM
- TGI [3]: > 100 µM
- TGI [4]: > 100 µM
- TGI [5]: 51.6 µM
- TGI [6]: > 100 µM
- TGI [7]: > 100 µM

Compound: CN(Cc1ccccc1)C1(N(C)Cc2ccccc2)CC1
- TGI [1]: > 100 µM
- TGI [9]: > 100 µM
- TGI [2]: > 100 µM
- TGI [3]: > 100 µM
- TGI [4]: > 100 µM
- TGI [5]: > 100 µM
- TGI [6]: > 100 µM
- TGI [7]: > 100 µM
- TGI [8]: > 100 µM

Compound: O=C1NC(=S)NC(=O)C1=Cc1ccc2ccccc2n1
- TGI [1]: > 100 µM
- TGI [9]: > 100 µM
- TGI [2]: > 100 µM
- TGI [3]: > 100 µM
- TGI [4]: > 100 µM
- TGI [5]: > 100 µM
- TGI [6]: > 100 µM
- TGI [7]: > 100 µM
- TGI [8]: > 100 µM

Compound: CN(C)CCNC(=O)c1cccc2c1nc(-c1ccccn1)c1ccccc12
- TGI [1]: 47.1 µM
- TGI [9]: > 100 µM
- TGI [3]: 30 µM
- TGI [4]: 23 µM
- TGI [5]: 27.3 µM
- TGI [6]: > 100 µM
- TGI [7]: 32.4 µM
- TGI [8]: 38.1 µM

Compound: COc1ccc(/C=C/C(C(=O)O)C(=O)O)cc1
- TGI [9]: > 100 µM
- TGI [2]: > 100 µM
- TGI [3]: > 100 µM
- TGI [4]: > 100 µM
- TGI [5]: > 100 µM
- TGI [6]: > 100 µM
- TGI [7]: > 100 µM
- TGI [8]: > 100 µM

Compound: Cc1nn(C)c(=S)n(C)c1=O
- TGI [1]: 2.73 µM
- TGI [2]: > 100 µM
- TGI [3]: 10.6 µM
- TGI [4]: 10.8 µM
- TGI [5]: > 100 µM
- TGI [6]: 43.4 µM
- TGI [7]: > 100 µM
- TGI [8]: 53.8 µM

Compound: CC1=C(c2cc(C(=O)Nc3cccc(C(F)(F)F)c3)nc(NC#N)n2)Sc2ccccc2N1
- TGI [1]: > 100 µM
- TGI [9]: > 100 µM
- TGI [2]: > 100 µM
- TGI [3]: > 100 µM
- TGI [4]: > 100 µM
- TGI [5]: > 100 µM
- TGI [6]: > 100 µM
- TGI [7]: > 100 µM
- TGI [8]: > 100 µM

Compound: COc1ccc(S(=O)(=O)N/N=C(\C)CN2C(=O)c3ccccc3C2=O)cc1
- TGI [1]: > 100 µM
- TGI [9]: > 100 µM
- TGI [2]: > 100 µM
- TGI [3]: > 100 µM
- TGI [4]: > 100 µM
- TGI [5]: > 100 µM
- TGI [6]: > 100 µM
- TGI [7]: > 100 µM
- TGI [8]: > 100 µM

Compound: C1C[OH+]CC[OH+]CC[OH+]CC[OH+]CC[OH+]CC[OH+]1.[Cl-].[Ta+5]
- GI50 [1]: 23.8 µM
- TGI [1]: > 100 µM
- GI50 [9]: > 100 µM
- TGI [9]: > 100 µM
- GI50 [2]: 13.3 µM
- TGI [2]: 30.5 µM
- GI50 [3]: > 100 µM
- TGI [3]: > 100 µM
- GI50 [4]: > 100 µM
- TGI [4]: > 100 µM
- GI50 [5]: > 100 µM
- TGI [5]: > 100 µM
- GI50 [6]: > 100 µM
- TGI [6]: > 100 µM
- GI50 [7]: > 100 µM
- TGI [7]: > 100 µM

Compound: Cc1nn(C)c(=O)c2nn(-c3ccccc3)c(C)c12
- TGI [1]: > 100 µM
- TGI [9]: > 100 µM
- TGI [2]: > 100 µM
- TGI [3]: > 100 µM
- TGI [4]: > 100 µM
- TGI [5]: > 100 µM
- TGI [6]: > 100 µM
- TGI [7]: > 100 µM
- TGI [8]: > 100 µM

Compound: Cc1cccc(N2C(=O)C(=O)C(c3nc4ccccc4s3)C(=O)C2=O)c1C
- TGI [1]: > 100 µM
- TGI [2]: > 100 µM
- TGI [3]: > 100 µM
- TGI [4]: > 100 µM
- TGI [5]: > 100 µM
- TGI [6]: > 100 µM
- TGI [7]: > 100 µM
- TGI [8]: > 100 µM
